According to US10259796B2, “Oxaspiro[2.5]octane derivatives and analogs” (Zafgen, Inc., priority 2011, dated 2019):
Read-outs that look alike come from different tables or passages of the source.

How the values were obtained:
recombinant human MetAP2 = biological target: T1, recombinant human MetAP2 (Homo sapiens, UniProt P50579); assay: MetAP2 enzyme assay (inhibition of recombinant MetAP2, Met-Gly-Met-Met substrate); format: biochemical; conditions: 50 nM
T1 construct: made in house; host or cells: High Five insect cells (Bac-to-Bac baculovirus)
Procedure: Exemplary procedures for expression and purification of MetAP2 are shown in Griffith et al. (PNAS (1998) 95(26):15183-15188). Briefly, recombinant His-tagged human MetAP2 is expressed by using a Bac-to-Bac baculovirus expression system (GIBCO/BRL). Recombinant baculovirus stocks are generated and amplified as per the manufacturer's instructions. Protein is harvested 36 hr after baculovirus infection of two 15-cm plates of High Five cells.
The cell pellet are weighed and lysed (in 5 ml/g of wet pellet) in pre-chilled lysis buffer [buffer B+1% Nonidet P-40/1 mM phenymethylsulfonyl fluoride (PMSF)/2 μg/ml leupeptin/2 μg/ml aprotinin/1 μg/ml pepstatin]. The lysate is incubated on ice for 10 min and centrifuged at 10,000×g for 10 min. […] The Talon resin is pelleted by centrifugation at 1,200×g for 3 min and washed with 4×10 ml of buffer B. During the final wash, the resin is slurried into a Bio-Rad Econo column. The 6×His-tagged MetAP2 is eluted with 6 ml of 50 mM imidazole in buffer B, and 0.5 ml fractions are collected. The amount and purity of recombinant MetAP2 is analyzed by the absorbance at 280 nm and SDS/PAGE (10% gel). The fractions containing the highest amounts of MetAP2 are pooled and dialyzed against 3 liters of buffer B overnight before storage at 4° C.
An enzyme assay is performed in a 96-well format as described in Griffith et al. (PNAS (1998) 95(26):15183-15188). […] To begin the enzymatic reaction, Met-Gly-Met-Met is added to a final concentration of 4 mM and incubated at 37° C. The reaction is quenched after 20 min by adding EDTA to a concentration of 10 mM. Released methionine is quantitated as described in Ben-Bassat et al. (J Bacteriol (1987) 169:751-757).
IC50 values are calculated and compounds herein are determined to be active inhibitors of MetAP2, with some having nanomolar activities.

[1] = Cell Based Assay (inhibition range)
[2] = 1 hr, read-out: MetAP2 Enzyme Assay 1 hr 50 nM
[3] = 2 hr, read-out: MetAP2 Enzyme Assay 2 hr 50 nM
[4] = 4 hr, read-out: MetAP2 Enzyme Assay 4 hr 50 nM

T1 sequence (P50579 whole entry): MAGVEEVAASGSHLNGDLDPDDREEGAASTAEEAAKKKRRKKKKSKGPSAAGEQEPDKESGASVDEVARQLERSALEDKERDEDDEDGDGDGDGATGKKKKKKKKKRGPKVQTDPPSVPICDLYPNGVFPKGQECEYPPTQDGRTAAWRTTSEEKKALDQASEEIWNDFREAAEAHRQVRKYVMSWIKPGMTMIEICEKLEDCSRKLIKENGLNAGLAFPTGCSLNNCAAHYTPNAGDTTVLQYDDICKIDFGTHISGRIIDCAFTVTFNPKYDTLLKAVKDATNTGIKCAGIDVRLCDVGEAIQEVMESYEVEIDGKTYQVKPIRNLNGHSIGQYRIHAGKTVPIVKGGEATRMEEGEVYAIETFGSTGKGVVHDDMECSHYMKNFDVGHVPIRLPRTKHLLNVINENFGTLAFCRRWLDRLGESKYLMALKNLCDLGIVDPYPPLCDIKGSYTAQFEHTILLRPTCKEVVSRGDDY

Row | SMILES | inhibition at 0.05 µM (recombinant human MetAP2; [2]) [%] | inhibition at 0.05 µM (recombinant human MetAP2; [3]) [%] | inhibition at 0.05 µM (recombinant human MetAP2; [4]) [%] | IC50 ([1]; in uM) [µM] | IC50 ([1]; cells printed in nM) [µM]
1 | CO[C@@H]1C(=O)CC[C@]2(CO2)[C@H]1C1(C)O[C@@H]1CCC(C)C (stereo in doubt) [Example 52, (3R,5 S)-4-((2R,3R)-3-isopentyl-2-methyloxiran-2-yl)-5-methoxy-1-oxaspiro[2.5]octan-6-one] | 0 | 0 | 17 | – | –
2 | CO[C@@H]1C(=CC=C(C)C)CC[C@]2(CO2)[C@H]1[C@@]1(C)O[C@@H]1CC=C(C)C [Example 21] | 0 | 0 | 0 | > 1 | –
3 | C=C1CC[C@]2(CO2)[C@@H]([C@@]2(C)O[C@@H]2C/C=C/CCCC)[C@@H]1OC [Example 22] | 0 | 0 | 0 | > 1 | –
4 | CCCC/C=C/C[C@H]1O[C@]1(C)[C@H]1[C@H](OC)[C@H](O)CC[C@]12CO2 [Example 24] | 0 | 0 | 0 | – | 0.01 to 0.1
5 | CO[C@@H]1C(C)CC[C@]2(CO2)[C@H]1[C@@]1(C)O[C@@H]1CCC(C)C (stereo partly shown) [Example 26] | 0 | 0 | 0 | – | –
6 | CCCCCCCCCC[S+]([O-])[C@@H]1CC[C@]2(CO2)[C@@H]([C@@]2(C)O[C@@H]2CC=C(C)C)[C@@H]1OC (stereo partly shown) [Example 31] | – | – | 0 | – | –
7 | CO[C@@H]1[C@H](OC(=O)/C=C/C=C/C=C/C=C/C(=O)O)CC[C@]2(CO2)[C@H]1[C@@]1(C)O[C@@H]1CC=C(C)C [Example 36] | – | – | 64 | – | < 0.01
8 | CCOC(=O)C=C1CC[C@]2(CO2)[C@@H]([C@@]2(C)O[C@@H]2CC=C(C)C)[C@@H]1OC [Example 37] | – | – | 96 | – | < 0.01
9 | CO[C@@H]1C(=O)CC[C@]2(CO2)[C@H]1[C@@]1(C)O[C@@H]1CC=C(C)C [Example 51, (3R,5S)-5-methoxy-4-((2R,3R)-2-methyl-3-(3-methylbut-2-enyl)oxiran-2-yl)-1-oxaspiro[2.5]octan-6-one] | 0 | 44 | 78 | – | –
10 | CO[C@@H]1C(=O)C(C)C[C@]2(CO2)C1[C@@]1(C)O[C@@H]1CC=C(C)C (stereo partly drawn) [Example 53, (3R,5S)-5-methoxy-7-methyl-4-((2R,3R)-2-methyl-3-(3-methylbut-2-enyl)oxiran-2-yl)-1-oxaspiro[2.5]octan-6-one] | 0 | 0 | 28 | – | –
11 | CO[C@@H]1C(=O)CC[C@@](C)(O)[C@H]1[C@@]1(C)O[C@@H]1CCC(C)C [Example 54, (2S,4R)-4-hydroxy-3-((2R,3R)-3-isopentyl-2-methyloxiran-2-yl)-2-methoxy-4-methylcyclohexanone] | 0 | 0 | 0 | – | –
12 | CO[C@@H]1C(=O)CC[C@]2(CO2)[C@H]1C1(C)O[C@@H]1CC(=O)O (stereo partly shown) [Example 55] | – | – | 0 | – | –
13 | CO[C@@H]1C(=O)C=C[C@]2(CO2)[C@H]1[C@@]1(C)O[C@@H]1CC=C(C)C [Example 57, (3R,S)-7-methoxy-8-((2R,3R)-2-methyl-3-(3-methylbut-2-enyl)oxiran-2-yl)-1-oxaspiro[2.5]oct-4-en-6-one] | – | – | 37 | – | –
14 | CO[C@@H]1C(=O)CC[C@]2(CO2)[C@H]1C1(C)O[C@@H]1CC(=O)NCc1ccccc1 (stereo partly shown) [Example 58] | – | – | 0 | – | –
15 | CCOC(=O)CCCCC/C=C/C[C@H]1OC1(C)[C@H]1[C@H](OC)C(=O)CC[C@]12CO2 (stereo partly shown) [Example 59] | – | – | 0 | – | 0.01 to 0.1
